According to BigSolDB 2.1:

Details: in water

CC(C)(C)[C@H](O)[C@H](Cc1ccc(Cl)cc1)n1cncn1 (racemic)
Details | solubility (mole fraction)
278.15 K | 3.96e-05
280.65 K | 5.22e-05
283.15 K | 6.56e-05
285.65 K | 7.76e-05
288.15 K | 8.75e-05
290.65 K | 0.000111
293.15 K | 0.000146
295.65 K | 0.000181
298.15 K | 0.000231
300.65 K | 0.000295
303.15 K | 0.000346
305.65 K | 0.000408
308.15 K | 0.000458
310.65 K | 0.00054
313.15 K | 0.000626
